Experimental data taken from patent publication US20040057926A1, “Modulation of the immune response through the manipulation of arginine levels” (LSU Medical Center, priority 2002, published 2004).

B1: IFN-γ: murine rIFN-γ (100 U/ml), Th1 cytokine used to stimulate PM (protein, UniProt P01580 23-155, looked up)
Interferon gamma: HGTVIESLESLNNYFNSSGIDVEEKSLFLDIWRNWQKDGDMKILQSQIISFYLRLFEVLKDNQAISNNISVIESHLITTFFSNSKAKKDAFMSIAKFEVNNPQVQRQAFNELIRVVHQLLPESSLRKRKRSRC

How the values were obtained:
[1] = test system: ASE I; experiment: Western blot for ASE I in PM cytoplasmic extracts; assay type: cell-based, mice
Procedure: Cytoplasmic extracts from PM, Jurkat cells or T lymphocytes were prepared as previously reported. Taheri, F., J. B. Ochoa, Z. Faghiri, K. Culotta, H. J. Park, M. S. Lan, A. H. Zea, and A. C. Ochoa. 2001. L-Arginine regulates the expression of the T-cell receptor zeta chain (CD3zeta) in Jurkat cells. Clin Cancer Res 7:958s-965s. Briefly, cells were resuspended in lysis buffer (50 mM HEPES, 150 mM NaCl, 5 mM EDTA, 1 mM NaOV4 and 0.5% Triton) containing 50 μg/ml of aprotinin, 50 μg/ml of leupeptin, 100 μg/ml of trypsin-chymotrypsin inhibitor and 2 mM PMSF. Lysates were centrifuged at 3000×g for 10 min at 4° C. Cytoplasmic extracts from Jurkat or T-cells were immunoblotted for CD3ζ and CD3ε. The expression ASE I, ASE II and iNOS was detected by immunoblot using PM extracts. GAPDH was used as housekeeping protein. Cytoplasmic extracts were electrophoresed in 12 or 8% Tris-Glycine gels (Novex, San Diego, Calif.), transferred to PVDF membranes and immunoblotted with the appropriate antibodies. The reactions were detected using the ECL kit (Amersham-Pharmacia).

[2] = test system: Jurkat cells; experiment: Co-culture in transwells of stimulated PM and Jurkat cells, CD3ζ expression; assay type: cell-based
Procedure: (§1) PM were cultured in 6 well plates in RPMI containing 150 μM L-Arg and stimulated with murine rIL-4 (50 U/ml) and murine rIL-13 (50 ng/ml), or murine rIFN-γ (100 U/ml) for 24 hours. Then 1×10^6 normal T-cells stimulated with anti-CD3 plus anti-CD28 or 1×10^6 Jurkat cells, were cultured in the top chamber of a transwell system having 0.4 μm pores (Falcon, Franklin lakes, N.J.). CD3ζ expression was measured in Jurkat cells or T lymphocytes at different time points. PM were detached using trypsin/EDTA and the expression of protein and RNA for CAT-2B, ASE I, ASE II and iNOS was tested by western blot and northern blot respectively. Cytoplasmic extracts from PM were used to test ASE activity. Supernatants from stimulated PM were used to measure NO production using the Griess reagent method (Molecular Probes, Eugene, Oreg.). In addition, the extra-cellular concentration of L-Arg was tested in supernatants by HPLC (Dr. Gu Yao Wu laboratory, University of Texas) as described previously. O'Quinn, P. R., D. A. Knabe, and G. Wu. 2002. Arginine catabolism in lactating porcine mammary tissue. J Anim Sci. 80:467-474.
Flow cytometry analysis was performed as previously described. Taheri, F., J. B. Ochoa, Z. Faghiri, K. Culotta, H. J. Park, M. S. Lan, A. H. Zea, and A. C. Ochoa. 2001. L-Arginine regulates the expression of the T-cell receptor zeta chain (CD3zeta) in Jurkat cells. Clin Cancer Res 7:958s-965s. Briefly, 5×10^5 Jurkat cells or T lymphocytes were washed once with Dulbecco phosphate-buffered saline 1× (D-PBS) and resuspended in 200 μL of D-PBS containing 1 μg of anti-CD3ε or isotype control. Cells were incubated for 15 min at 4° C., washed with D-PBS and resuspended in 200 μl D-PBS containing 500 μg/ml of digitonin plus 1 μg of anti-CD3ζ or 1 μg of isotypic control. Cells were incubated for 8 minutes after which they were washed and resuspended in 400 μl of D-PBS. Fluorescence acquisition and analysis were done using a Coulter-EPICS XL flow cytometer (Beckman-Coulter) with a 488 nm argon laser. The data were expressed as mean channel fluorescence intensity (MFI).

[3] = test system: ASE; experiment: ASE activity assay (L-ornithine production) in PM lysates; assay type: biochemical, mice; settings: NOHA 100 μM, Nor-NOHA 50 μM
Procedure: Cell lysates from PM stimulated with IL-4+IL-13 or IFN-γ were tested for ASE activity by measuring the production of L-ornithine. In brief, cell lysates from PM stimulated with IL-4+IL-13 or IFN-γ in the presence or absence of NOHA or Nor-NOHA were added to 50 μl of Tris-HCl (50 mM; pH 7.5) containing 10 mM MnCl2. This mixture was heated at 55-60° C. for 10 min to activate ASE. The hydrolysis reaction from L-Arg to L-ornithine was identified by a colorimetric assay after the addition of ninhydrin solution and incubation at 37° C. for 1 h.

[4] = test system: 3LL lung carcinoma; experiment: Anti-tumor effect on 3LL lung carcinoma in C57Bl/6 mice; assay type: in vivo
Procedure: The anti-tumor effect of arginase inhibitor Nor-NOHA was also measured on these tumor cells. C57Bl/6 mice were injected with one million 3LL lung carcinoma cells on the flank. […] Control mice received normal saline solution. Tumors were measured and the tumor volume was calculated in cubic […]. […] Materials and methods for this example were similar to those described in the above examples.

[5] = test system: T lymphocytes; experiment: Co-culture in transwells of stimulated PM and stimulated normal T lymphocytes, CD3ζ expression; assay type: cell-based, human
Procedure: T-cells were isolated from mononuclear cells of healthy donors by T-cell enrichment columns (R&D Systems, Minneapolis, Minn.) according to manufacturer specifications. T-cell purity (CD3+) ranged between 89-95%. The cycle of internalization and re-expression of the TCR-CD3 complex was induced by T-cell stimulation with 1 μg/ml of anti-CD3, 100 ng/ml of anti-CD28 (Becton Dickinson) and 10 μg/ml of goat anti-mouse IgG (KPL, Gaithersburg, Md.). Cells were stimulated in the absence of L-Arg and added to the co-cultures 24 h after stimulation.
as §1
Flow cytometry analysis was performed as previously described. Taheri, F., J. B. Ochoa, Z. Faghiri, K. Culotta, H. J. Park, M. S. Lan, A. H. Zea, and A. C. Ochoa. 2001. […] Fluorescence acquisition and analysis were done using a Coulter-EPICS XL flow cytometer (Beckman-Coulter) with a 488 nm argon laser. The data were expressed as mean channel fluorescence intensity (MFI).

[6] = test system: peritoneal macrophages (PM); experiment: Extra-cellular L-Arg concentration in supernatants of peritoneal macrophages (HPLC); assay type: cell-based, mice; settings: for extra-cellular L-Arg levels (mean of three experiments): L-Arg 2 mM, NOHA 100 μM, Nor-NOHA 50 μM
Procedure: Jurkat T-cells, a CD4^+ cell line (Clone E6-1) (ATCC, Manassas, Va.) and normal stimulated T-cells were used to test the effect of ASE I, ASE II and iNOS produced by PM on CD3ζ expression. Six-week old female C57BL/6 mice were used to isolate peritoneal macrophages (PM). Briefly, 3 ml of thioglycolate-brewer (Becton Dickinson, San Jose, Calif.) were injected into the peritoneal cavity of mice for 3 days. Mice were then sacrificed and PM isolated by washing the peritoneum with HBSS. After 2 days of culture in RPMI with 4% fetal bovine serum, unattached cells were washed off and attached cells were used in co-cultures with Jurkat or normal T-cells.
as §1

[7] = test system: CAT-2B; experiment: CAT-2B mRNA expression in PM (northern blot); assay type: cell-based, mice
Description: Anti-CD3ε-FITC, anti-CD3ζ-PE (Beckman-Coulter, Miami, Fla.) were used for flow cytometry. Mouse IgG1-FITC and mouse IgG1-PE (Beckman-Coulter) were used as isotype controls. Monoclonal antibodies against CD3ζ (Santa Cruz Biotechnologies, Santa Cruz, Calif.), CD3ε (DAKO, Carpinteria, Calif.), iNOS (Santa Cruz Biotechnologies), ASE I (Transduction-Becton Dickinson) and ASE II (a kind gift of Dr. Sidney Morris Jr) were used for western blots. To test the expression of CAT transporters mRNA, specific amplification products from RT-PCR of CAT-1, CAT-2A, CAT-2B and CAT-3 were purified from agarose gels and used as probes to detect CAT expression by northern blot. Murine full-length cDNA for glyceraldehyde-3 phosphate dehydrogenase (GAPDH) (1.6 Kb) (Clontech, Palo Alto, Calif.) was used as housekeeping control.
Two million PM stimulated with IL-4+IL-13 or IFN-γ were used for RNA extraction using lysis with TRIzol (Invitrogen-Gibco) following the manufacturer's specifications. Four micrograms of total RNA from each sample were electrophoresed under denaturing conditions, blotted onto nytran membranes (Schleicher & Schuell Inc, Keene, N.H.) and cross-linked by UV irradiation. Membranes were pre-hybridized at 42° C. in ULTRAhyb buffer (Ambion, Austin, Tex.) and hybridized overnight with 1×10^6 cpm/mL of ^32P-labeled probe. […]

Molecule	ASE I up regulation after IL-4+IL-13 stimulation ([1]; NOHA 100 μM, Nor-NOHA 50 μM)	CD3ζ in Jurkat cells co-cultured with PM stimulated with IL-4+IL-13 ([2]; NOHA 100 μM, Nor-NOHA 50 μM, L-Arg 2 mM, L-NIL 5 μg/ml, catalase 200 U/ml, L-NMMA, L-NNA, L-NAME 1 mM)	intracellular ASE activity [3]	tumor growth (tumor volume) ([4]; 20 or 40 mgs/kg subcutaneously, contralateral flank)	tumor growth, comparison of doses ([4]; 40 mgs/kg, the highest dose tested)	CD3ζ in normal stimulated T lymphocytes co-cultured with IL-4+IL-13 activated PM [5]	extra-cellular L-Arg levels (mean of three experiments) ([6]; Non-stimulated PM) [µM]	extra-cellular L-Arg levels (mean of three experiments) ([6]; PM stimulated with IL-4 + IL-13) [µM]	rapid decrease in the extra-cellular levels of L-Arg ([6]; PM stimulated with IL-4+IL-13)	CAT-2B mRNA expression in stimulated PM [7]	ASE I expression in PM stimulated with cytokines ([1]; 24 hours)	expression of CD3ζ and CD3ε in Jurkat cells co-cultured with cytokine-stimulated PM ([2]; rIL-4 50 U/ml, rIL-13 50 ng/ml, rIFN-γ 100 U/ml)	CD3ζ in stimulated T-cells co-cultured with cytokine-stimulated PM ([5]; transwells)	change of extra-cellular L-Arg by stimulated PM ([6]; similar to unstimulated PM)
N=C(NO)NCC[C@H](N)C(=O)O [Nor-NOHA, N(omega)-hydroxy-nor-l-arginine]	did not prevent ASE I up regulation	prevented the decrease of CD3ζ	blocked intracellular ASE activity	significant arrest of tumor growth	most effective	prevented the loss of CD3ζ	109.8	73.8	partially blocked the rapid decrease					
B1										no increase in CAT-2B mRNA	decrease ASE I expression	did not alter CD3ζ or CD3ε expression	normal cycle of internalization and re-expression of CD3ζ within 48 hours	moderate decrease in L-Arg
